Laboratory results reported in the supplement of paper PMC10307832.

Tests used:
Assay in all cases: relative viability (nuclei count vs DMSO), 5 days (fraction); higher = more cells survive
[1] = compound: C1=CC2=NC=CN=C2C=C1/C=C/3\C(=O)NC(=O)S3 + O=C(c1cc(Cc2n[nH]c(=O)c3ccccc23)ccc1F)N1CCN(C(=O)C2CC2)CC1 [Olaparib] (partner 8 µM)
Outline: (§1)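 The day after seeding in 1536-well plates, lung cancer cell lines were treated by pin tool with a single drug, or with a fixed anchor-drug dose together with five library-drug doses (not always all listed) in √10 steps. After 5 days, a combined fix-and-stain solution (final 0.05% Triton X-100, 1% formaldehyde, 1 ug/ml Hoechst) was added. Nuclei counted on 4× images gave relative viability as treated counts over vehicle counts, reported as the median of duplicate plates.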

[2] = compound: CCN1CCN(c2ccc(Nc3cc(N(C)C(=O)Nc4c(Cl)c(OC)cc(OC)c4Cl)ncn3)cc2)CC1 [BGJ398] + O=C(CCCCCCC(=O)Nc1ccccc1)NO [Vorinostat] (partner 1 µM)
Outline: as §1

[3] = compound: C1=CC2=NC=CN=C2C=C1/C=C/3\C(=O)NC(=O)S3 + Nc1nc2[nH]cc(CCc3ccc(C(=O)N[C@@H](CCC(=O)O)C(=O)O)cc3)c2c(=O)[nH]1 [Pemetrexed] (partner 0.2 µM)
Outline: as §1

[4] = compound: CCN1CCN(c2ccc(Nc3cc(N(C)C(=O)Nc4c(Cl)c(OC)cc(OC)c4Cl)ncn3)cc2)CC1 [BGJ398] + CS(=O)(=O)N1CCN(Cc2cc3nc(-c4cccc5[nH]ncc45)nc(N4CCOCC4)c3s2)CC1 [Pictilisib] (partner 1 µM)
Outline: as §1

Cell Line	relative viability ([1]; first compound 0.02 µM)	relative viability ([1]; first compound 0.06325 µM)	relative viability ([1]; first compound 0.2 µM)	relative viability ([1]; first compound 0.6325 µM)	relative viability ([1]; first compound 2 µM)	relative viability ([2]; first compound 0.01 µM)	relative viability ([2]; first compound 0.03162 µM)	relative viability ([2]; first compound 0.1 µM)	relative viability ([2]; first compound 0.3162 µM)	relative viability ([2]; first compound 1 µM)	relative viability ([3]; first compound 0.02 µM)	relative viability ([3]; first compound 0.06325 µM)	relative viability ([3]; first compound 0.2 µM)	relative viability ([3]; first compound 0.6325 µM)	relative viability ([3]; first compound 2 µM)	relative viability ([4]; first compound 0.01 µM)	relative viability ([4]; first compound 0.03162 µM)	relative viability ([4]; first compound 0.1 µM)	relative viability ([4]; first compound 0.3162 µM)	relative viability ([4]; first compound 1 µM)
201T	0.878	0.81	0.844	0.828	0.866	1.2	0.947	0.949	0.929	0.885	0.316	0.346	0.363	0.348	0.312	0.804	0.659	0.641	0.652	0.559
A549	0.284	0.133	0.366	0.335	0.12	–	–	–	–	–	–	–	–	–	–	0.486	0.475	0.453	0.535	0.596
A-427	0.71	0.83	0.716	0.716	0.634	0.909	0.953	0.895	0.698	0.713	0.963	1.03	0.959	0.96	0.903	0.622	0.644	0.506	0.334	0.158
ABC-1	0.712	0.88	0.859	0.782	0.735	1.61	0.855	1.04	–	0.937	–	–	–	–	–	0.63	0.721	0.722	0.693	0.916
BEN	1.09	1.05	1.02	1.12	1.03	0.533	0.557	0.594	0.553	0.544	0.824	0.813	0.773	0.836	0.644	0.491	0.609	0.534	0.478	0.473
CAL-12T	0.64	0.784	0.692	0.779	0.672	0.666	1.08	0.703	0.895	0.941	1.03	1.31	1.34	1.09	1.28	0.423	0.441	0.532	0.409	0.342
COR-L23	0.273	0.383	0.323	0.401	0.36	0.443	0.52	0.445	0.485	0.484	0.187	0.202	0.202	0.19	0.179	0.691	0.826	0.788	0.808	0.87
COR-L 105	0.674	0.711	0.701	0.819	0.723	0.656	0.727	0.879	0.828	0.931	1.13	1.14	1.08	1.12	1.02	0.314	0.442	0.417	0.328	0.387
Calu-6	0.602	0.621	0.597	0.592	0.568	–	–	–	–	–	–	–	–	–	–	0.848	0.987	0.935	0.898	0.991
ChaGo-K-1	0.385	0.351	0.431	0.412	0.412	0.67	0.775	0.706	0.802	0.794	0.263	0.277	0.262	0.265	0.256	0.802	0.702	0.561	0.608	0.314
EBC-1	0.626	0.84	0.754	0.76	0.723	–	–	–	–	–	–	–	–	–	–	0.41	0.414	0.357	0.515	0.451
EKVX	0.668	0.828	0.824	0.812	0.838	0.701	–	0.921	0.691	0.728	0.337	0.356	0.363	0.438	0.364	0.437	0.395	0.479	0.406	0.46
EMC-BAC-2	0.463	0.498	0.572	0.489	0.39	0.707	0.591	0.316	0.366	0.413	0.402	0.424	0.44	0.434	0.417	0.503	0.561	0.513	0.476	0.465
EPLC-272H	0.865	0.64	0.971	0.898	0.542	0.531	0.395	0.261	0.5	0.578	0.351	0.266	0.43	0.353	0.318	0.323	0.296	0.255	0.255	0.18
H3255	0.583	0.509	0.56	0.594	0.517	0.793	–	0.77	–	0.795	0.532	0.559	0.577	0.616	0.533	0.484	0.138	0.462	0.344	0.506
HARA	0.899	0.54	0.687	1.06	0.615	0.63	0.51	0.669	0.598	0.593	0.226	0.233	0.256	0.231	0.249	0.346	0.426	0.371	0.283	0.185
HCC-15	0.699	0.612	0.71	0.675	0.634	0.809	0.795	0.779	0.824	0.759	0.231	0.217	0.234	0.231	0.218	0.67	0.703	0.79	0.805	0.723
HCC-44	0.9	1.07	0.924	0.965	0.945	1.12	1.14	1.14	1.1	1.09	0.578	0.688	0.667	0.675	0.655	0.544	0.671	0.682	0.602	0.401
